According to patent US11285142B2, “Compositions and methods for identifying and treating dystonia disorders” (DUKE UNIVERSITY, priority 2015, dated 2022):

How the values were obtained:
[1] = tested on: Flp-In T-REx 293 cells expressing delta-E Torsin1a; assay: Cytotoxicity (cell count, cellular morphology) in the Torsin1a assay cell line; format: cell-based, human
Experimental: (§1) In order to test this model directly, the delta-E Torsin1a cell line was treated with compounds targeting the eIF2-alpha signaling pathway (FIG. 2). […] The following day, serial drug dilutions were prepared at 2× final concentration in assay media containing 10 μg/mL tetracycline and 30 μL of the drug/tetracycline mixture was added to the appropriate wells, while control wells received 30 μL of assay media alone or assay media+10 μg/mL tetracycline (final tetracycline concentration for all wells except negative controls: 5 μg/mL). Cells were then incubated at 37° C./5% CO^2 for 48 hours and fixed, permeabilized, Hoechst stained, and imaged as described above. The range of the Torsin1a localization effect was normalized to the percentage of cells with puncta in vehicle-treated delta-E cell line as the maximum and that in WT cell line as the minimum (FIG. 2, panels c-h). Cell count and EGFP-Torsin1a expression were normalized to their respective values in the vehicle-treated delta-E cell line as the maximum. All dose response data are the average of 4 independent experiments per dose. Untreated control data used for normalization are the average of 24 independent experiments.
(§2) Efficacy is calculated as the magnitude of the pathology correction relative to the mutant Torsin1a pathology. For example an efficacy=−100% would be equivalent to the WT TorsinA phenotype, and 0% would be equivalent to the Mutant TorsinA phenotype. CCv2 refers to the dose response Curve Class annotation, and AC refers to Active Concentration.

[2] = as above; format: cell-based, human; details: human
Experimental: as §1, §2

[3] = tested on: delta-E Torsin1a localization in Flp-In T-REx 293 cells expressing EGFP-delta-E Torsin1a; assay: delta-E Torsin1a mis-localization assay (high-content imaging, % cells with EGFP puncta); format: cell-based, human
Experimental: To limit variation in expression levels associated with random integration or transient expression, single copies of either WT or delta-E human TOR1A cDNAs with N-terminal EGFP fusions were inserted at the FRT site in Flp-In™ T-Rex™ 293 cells (Thermo Fisher Scientific #R780-07) via flippase recombinase-mediated cassette exchange according to the manufacturer's recommended protocols.
The cells were maintained at 37° C./5% CO2. All experiments were performed on cells with fewer than 5 passages.
Torsin1a expression was also controlled by tetracycline induction to avoid selective pressure modifying the cellular phenotypes. […] The mutant phenotype was measured as the percentage of cells with one or more EGFP puncta using automated high-content imaging analysis (see infra).
The image analysis algorithm was developed using the Cellomics ArrayScan V CompartmentAnalysisV2 protocol. Hoechst's nuclear staining (Ch1: excitation 350 nm; emission 461 nm) was used for focusing and for cell identification by nuclear size, shape, and intensity. […] Detected cells were gated according to nuclear area, length-to-width ratio, and perimeter-to-area ratio. For the purpose of analysis, cell bodies were defined by a radius of 10 μm from the outer edge of the defined nucleus. Overlapping cells were automatically segmented according to the Cellomics ArrayScanV CompartmentAnalysisV2 object segmentation feature. EGFP fluorescence (Ch2: excitation 488 nm; emission 509 nm) was used for puncta detection. […] Torsin1a puncta were identified using the spot detection feature of the Compartmental AnalysisV2 protocol. The percentage of cells containing one or more puncta was used as the primary metric in this assay.
as §1

CreP = assay: Western blot of CreP in EGFP-delta-E Torsin1a assay cell line; format: cell-based, human; details: EGFP-ΔE Torsin1a cells, increasing concentration
Experimental: (§3) Cells were harvested in RIPA buffer [150 mM NaCl/50 mM NaH2PO4/2 mM EDTA/l % Triton X-100/0.5% SDS/0.5% deoxycholic acid/50 mM NaF/10 mM Na4P2O7/1 mM Na3VO4/1× phosphatase inhibitor cocktail (Sigma #P5726)/1× cOmplete Mini EDTA-free protease inhibitor cocktail (Roche #04693159001)]. Total protein concentrations were assessed by BCA assay (Thermo Fisher Scientific #23225). Proteins were resolved on 4-15% TGX gels (Bio-Rad #5671085), transferred to nitrocelulose membrane, blocked in TBS-T+5% non-fat dry milk, and probed as indicated. (Primary antibodies employed in the examples of the disclosure are presented in Table 4.) ATF4 expression was normalized to […] expression. N=3 independent control cells lines and 4 independent DYT1 cell lines, 3 replicates each.
(§4) Western blot analyses were conducted to determine the effect of Lopinavir on ATF4, CreP, pEIF2-alpha, and β-actin abundance in EGFP-ΔE Torsin1a expression assay cell lines. […] This down regulation of CreP is in keeping with the HIV protease inhibitor mediated CreP regulation. (See De Gassart et al. PNAS 2015.)

luciferase secretion = assay: C.Luc. Secretion Assay (luciferase secretion, secretory deficits); format: cell-based
Experimental: We tested each shRNA for its ability to rescue a previously described defect in luciferase secretion. Chen, P. et al. (2010) Hum. Mol. Genet. 19, 3502-15; Cao, S. et al. (2010) Dis. Model. Mech. 3, 386-96; Barrows, N. J., et al., (2010)J. Biomol. Screen. 15, 735-47.) DYT1 patient data were obtained from 4 independent patient-derived lines and WT data (black bar) from 3 normal healthy control lines. Each line was tested in 5 independent experiments that included 4 technical replicates each (with the exception of SCD data from 3 independent experiments).
(Cao, S. et al. (2010) Dis. Model. Mech. 3, 386-96.) Subsequent testing of additional HIV protease inhibitors supported the activity of this class of compounds and generated favorable structure-activity relationship (SAR) data from which to design improved compounds (Tables 5 and 6). The results with a subset of compounds were also observed in a Luciferase secretion assay (Tables 5 and 6).

ATF4 = assay: Western blot of ATF4 in EGFP-delta-E Torsin1a assay cell line; format: cell-based, human; details: EGFP-ΔE Torsin1a cells, dose dependent
Experimental: as §3, §4

EIF2-alpha = assay: Western blot of phosphorylated eIF2-alpha in EGFP-delta-E Torsin1a assay cell line; format: cell-based, human; details: EGFP-ΔE Torsin1a cells, dose dependent
Experimental: as §3, §4

With Cc1cccc(C)c1OCC(=O)N[C@@H](Cc1ccccc1)[C@@H](O)C[C@H](Cc1ccccc1)NC(=O)[C@H](C(C)C)N1CCCNC1=O [Lopinavir, lopinavir] the “Cytotox CC-v2 (dose response Curve Class)” value ([1]; Table 6) was −3, the “Cytotox Efficacy” value ([1]; Table 6) was −69.87 and the “Cytotox Max Resp” value ([1]; Table 6) was −55.19. For the same molecule, the “toxicity (cell count, cellular morphology; in words)” value ([1]; at effective concentrations) was “no cellular toxicity observed at effective doses”, the EC50 at 48 h ([2]; Flp-In T-REx 293 cells inducibly expressing delta-E Torsin1a, Table 5, read-out: ΔE TorsinA Mislocalization Assay Cytotoxicity EC50) was 37.2 µM and the AC50 ([2]; Table 6, read-out: Cytotox AC50) was 37.2 µM. For the same molecule, the EC50 ([3]; Homo sapiens, Flp-In-T-REx-293, Table 5, read-out: ΔE TorsinA Mislocalization Assay Localization EC50) was 4.69 µM, the Emax ([3]; Homo sapiens, Flp-In-T-REx-293, Table 5, read-out: ΔE TorsinA Mislocalization Assay Localization Max Efficacy) was 70% and the AC50 ([3]; Homo sapiens, Flp-In-T-REx-293, Table 6, AC = Active Concentration, read-out: % pathology AC50) was 4.69 µM. For the same molecule, the “% pathology Max Resp” value ([3]; Table 6, normalized scale, WT-TorsinA line 0%, DYT1 mutant line 100% pathology) was −89.03%, the “% pathology Efficacy” value ([3]; Table 6, normalized scale, −100% = WT TorsinA phenotype, 0% = Mutant TorsinA phenotype) was −69.97% and the “effect on delta-E Torsin1a localization (in words)” value ([3]; delta-E cell line, dose response) was “corrected TorsinA localization in a dose-dependent fashion”. The “CreP abundance (steady state levels)” value (CreP) was “down-regulation of steady state levels”, the “CreP abundance (steady state levels)” value (CreP; listed as lopinavir) was “decreases CReP abundance” and the EC50 (luciferase secretion; Table 5) was 0.98 µM. For the same molecule, the Emax (luciferase secretion; Table 5, read-out: C.Luc. Secretion Assay Secretion Max Efficacy) was 177%, the “correction of secretory deficits (in words)” value (luciferase secretion; orthogonal assays) was “corrected secretory deficits” and the ATF4 abundance (ATF4) was “increases phosphorylation of EIF2-alpha and ATF4 abundance”. The “phosphorylation of EIF2-alpha” value (EIF2-alpha) was “increases phosphorylation of EIF2-alpha”.
